Experimental data taken from patent US6881705B2, “Fungicidal composition and use of this composition for controlling plant diseases” (Bayer Cropscience S.A., priority 2001, dated 2005).

Tests used:
Geotrichum candidum = assay: in vitro control of Geotrichum candidum on PDA medium (colony diameter in microtitre plate wells); type: cell-based; settings: 60 ppm in PDA medium; for Radial growth of the fungus (mm): 22° C., untreated control 15 mm; for Efficacy (%): colony diameter versus untreated control
Protocol: This example gives an illustration of the efficacy of a composition according to the invention for controlling Geotrichum candidum, this trial was carried out in vitro. The fungicidal compositions are used in solution at the doses detailed in Table 1. […] 1 day later, a microdrop of an aqueous suspension of Geotrichum candidum spores, supplemented with 400 ppm of Tween 20, is brought to the surface of each well of the microtitre plate. The cultures are then incubated at 22° C., 60% relative humidity, under subdued light until the control culture (without fungicide) has covered the entire surface of the well. The diameter of each colony is then measured and, in comparison with the untreated control, a percentage efficacy is calculated using the following formula: (diameter of the control−diameter of the trial)/diameter of the control×100.

Gloeosporium spp. = assay: in vivo trial combating Gloeosporium spp. on apples (Golden variety, preventive sprinkling)
Protocol: This example proposes to give an illustration of the efficacy of a composition according to the invention for combating Gloeosporium spp. on apples, this trial was carried out in vivo. The fungicidal compositions are used in solution at the doses detailed in Table 2. Apples of the Golden variety, untreated after harvest, are treated by sprinkling a fungicidal solution up to the run-off limit at the doses described in Table 2 of results (8 apples per product). 6 hours later, the fruit are inoculated by sprinkling an aqueous suspension at 150 000 spores/ml of Gloeosporium spp. obtained from a preculture on PDA medium. This inoculation by sprinkling is carried out up to the run-off limit. The fruit are then stored in the dark at 20° C., 100% relative humidity and the scores for the disease start 3 weeks later, for a period of 2 weeks. The number of fruit affected by rot are counted and, in comparison with the untreated control, a percentage efficacy is calculated using the following formula: […].

Compound | Radial growth of the fungus (mm) (Geotrichum candidum) | Efficacy (%) (Geotrichum candidum) | Efficacy (%) (Gloeosporium spp.; 375 ppm, sprinkled on Golden apples 6 hours before inoculation, rot versus untreated control) | Efficacy (%) (Gloeosporium spp.; 75 ppm)
C=CCOC(Cn1ccnc1)c1ccc(Cl)cc1Cl (stereo not drawn) [Imazalil, imazalil] | 14 | 7 | −29.2 | 
Cc1cc(C)nc(Nc2ccccc2)n1 [Pyrimethanil, pyrimethanil] | 15 | 0 |  | 14.9
